Converted amounts (≈) assume the structure as drawn.
Assays:
in vitro [1] = conditions: human, microsomes, CLH
in vitro [2] = conditions: rat, microsomes, CLH
cells = conditions: Homo sapiens, HEK293
in vivo [3] = conditions: Sprague-Dawley, rat, po, 10 umol/kg
in vivo [4] = conditions: Sprague-Dawley, rat, po, 10 umol/kg; remark: listed apart in the source
in vivo [5] = conditions: Sprague-Dawley, rat, po, 10 umol/kg; remark: listed apart in the source
in vivo [6] = conditions: Sprague-Dawley, rat, po, 10 umol/kg; remark: listed apart in the source
in vivo [7] = conditions: Sprague-Dawley, rat, po, 10 umol/kg; remark: listed apart in the source
in vivo [8] = conditions: Sprague-Dawley, rat, iv, 3 umol/kg
in vivo [9] = conditions: Sprague-Dawley, rat, iv, 3 umol/kg; remark: listed apart in the source
in vivo [10] = conditions: Sprague-Dawley, rat, iv, 3 umol/kg; remark: listed apart in the source
in vivo [11] = conditions: Sprague-Dawley, rat, iv, 3 umol/kg; remark: listed apart in the source
in vitro [12] = conditions: human, Caco-2
in vitro [13] = conditions: Sprague-Dawley, rat, plasma

| Compound | microsomal CLint (in vitro [1]) [µL/min/mg] | microsomal CLint (in vitro [2]) [µL/min/mg] | solubility at 4 h (physchem) [µM] | also measured |
| --- | --- | --- | --- | --- |
| N#C[C@H]1CC[C@H](N2C(=O)c3ccccc3C2C(=O)NCc2ccc(OC(F)(F)F)cc2)CC1 (some centres undefined) | < 10 | 11 | 200 (≈ 91.5 µg/mL) | – |
| O=C(NCc1ccc(CC(F)(F)F)cc1)C1c2ccccc2C(=O)N1CCc1ccccn1 (centres undefined) | 190 | 42 | 120 (≈ 54.4 µg/mL) | – |
| O=C(NCc1cccc(Br)c1)C1c2ccccc2C(=O)N1CCc1ccccn1 (centres undefined) | 310 | 47 | 6 (≈ 2.7 µg/mL) | – |
| O=C(NCc1ccc(OC(F)(F)F)cc1)C1c2ccccc2C(=O)N1C1CCC(F)(F)CC1 (single isomer, unassigned) | – | – | – | IC50 (cells): > 10 µM |
| CN(C)CCC=C1c2ccccc2CCc2ccccc21 [AMITRIPTYLINE] | – | – | – | IC50 (cells): 12 µM |
| O=C(NCc1ccc(F)c(OC(F)(F)F)c1)C1c2ccccc2C(=O)N1CCc1ncc(F)cn1 (centres undefined) | 220 | 110 | 27 (≈ 13.3 µg/mL) | – |
| O=C(NCc1cccc(OC(F)(F)F)c1)C1c2ccccc2C(=O)N1CCc1ncc(F)cn1 (centres undefined) | 180 | 28 | 61 (≈ 28.9 µg/mL) | bioavailability (in vivo [3]): 6%; half-life (in vivo [4]): 486 min; Tmax (in vivo [5]): 24 min; Cmax (in vivo [6]): 90 nM; AUC (in vivo [7]): 0.4 µM·h; clearance (in vivo [8]): 29 mL/min/kg; half-life (in vivo [9]): 24 min; Vd (in vivo [10]): 0.7 L/kg; AUC (in vivo [11]): 2.1 µM·h; Papp (in vitro [12]): 50 ×10⁻⁶ cm/s; fraction unbound (in vitro [13]): 0.18 |
| O=C(NCc1ccc(OCC(F)(F)F)nc1)C1c2ccccc2C(=O)N1CCc1ccccn1 (centres undefined) | 40 | < 10 | 88 (≈ 41.4 µg/mL) | – |
| O=C(NCc1ccc(F)c(C(F)(F)F)c1)C1c2ccccc2C(=O)N1CCc1ncc(F)cn1 (centres undefined) | < 10 | < 10 | 14 (≈ 6.67 µg/mL) | IC50 (cells): 33 µM; bioavailability (in vivo [3]): 4%; half-life (in vivo [4]): 72 min; Tmax (in vivo [5]): 18 min; Cmax (in vivo [6]): 100 nM; AUC (in vivo [7]): 0.2 µM·h; clearance (in vivo [8]): 32 mL/min/kg; half-life (in vivo [9]): 24 min; Vd (in vivo [10]): 0.9 L/kg; AUC (in vivo [11]): 1.6 µM·h; Papp (in vitro [12]): 39 ×10⁻⁶ cm/s; fraction unbound (in vitro [13]): 0.13 |
| CC(NC(=O)C1c2ccccc2C(=O)N1CCc1ccccn1)c1ccc(OCC(F)(F)F)cc1 (centres undefined) | 204 | 49 | 34 (≈ 16.4 µg/mL) | – |
| O=C(NCc1ccccc1Br)C1c2ccccc2C(=O)N1CCc1ccccn1 (centres undefined) | 300 | 20 | 280 (≈ 126 µg/mL) | – |
| O=C(NCc1ccc(OC(F)(F)F)cc1)C1c2ccccc2C(=O)N1CCc1ncc(F)cn1 (centres undefined) | 53 | < 10 | 25 (≈ 11.9 µg/mL) | bioavailability (in vivo [3]): 44%; half-life (in vivo [4]): 138 min; Tmax (in vivo [5]): 18 min; Cmax (in vivo [6]): 800 nM; AUC (in vivo [7]): 2.1 µM·h; clearance (in vivo [8]): 37 mL/min/kg; half-life (in vivo [9]): 24 min; Vd (in vivo [10]): 1.1 L/kg; AUC (in vivo [11]): 1.4 µM·h; fraction unbound (in vitro [13]): 0.092 |
| Cc1ccc(NC(=O)C2c3ccccc3C(=O)N2CCc2ccccn2)cc1C (centres undefined) | – | – | 34 (≈ 13.1 µg/mL) | – |
| O=C(NCc1ccc(OC(F)(F)F)cc1)C1c2ccccc2C(=O)N1CCN1CCOCC1 (centres undefined) | 49 | < 10 | 200 (≈ 92.7 µg/mL) | – |
| CCCCNc1ccc(C(=O)OCCN(C)C)cc1 [TETRACAINE] | – | – | – | IC50 (cells): 33 µM |
| O=C(NCc1ccc(OC(F)(F)F)cc1)C1c2ccccc2C(=O)N1CCc1ccncc1 (centres undefined) | 170 | 20 | 61 (≈ 27.8 µg/mL) | – |

| Compound | microsomal CLint (in vitro [1]) [µL/min/mg] | microsomal CLint (in vitro [2]) [µL/min/mg] | solubility at 4 h (physchem) [µM] | also measured |
| --- | --- | --- | --- | --- |
| O=C(NCc1ccc(OC(F)(F)F)cc1)C1c2cccc(O)c2C(=O)N1CCc1ccccn1 (centres undefined) | 59 | 10 | 15 (≈ 7.07 µg/mL) | – |
| O=C(NCc1ccc(OC(F)(F)F)cc1)C1c2ccccc2C(=O)N1CC1CC(F)(F)C1 (centres undefined) | 25 | 38 | < 1 | – |
| N#CCCN1C(=O)c2ccccc2C1C(=O)NCc1ccc(OC(F)(F)F)cc1 (centres undefined) | 11 | 16 | 45 (≈ 18.2 µg/mL) | – |
| O=C(NCc1ccc(OC(F)(F)F)cc1)C1c2ccccc2C(=O)N1CCC1CCOCC1 (centres undefined) | 71 | < 10 | 20 (≈ 9.25 µg/mL) | – |
| O=C(NCc1ccc(OC(F)(F)F)cc1)C1c2ccccc2C(=O)N1CCC(F)(F)F (centres undefined) | < 10 | < 10 | 11 (≈ 4.91 µg/mL) | – |
| O=C(NCc1ccc(OC(F)(F)F)cc1)C1c2cccc(F)c2C(=O)N1CCc1ccccn1 (centres undefined) | 170 | 16 | 26 (≈ 12.3 µg/mL) | – |
| O=C(NCc1ccc(Br)cc1)C1c2ccccc2C(=O)N1CCc1ccccn1 (centres undefined) | 120 | 31 | 57 (≈ 25.7 µg/mL) | – |
| O=C(NCc1ccc(OC(F)(F)F)cc1)C1c2ccccc2C(=O)N1C1CC(F)(F)C1 (centres undefined) | 15 | < 10 | 4 (≈ 1.76 µg/mL) | – |
| O=C(NCc1ccc(OC(F)F)nc1)C1c2ccccc2C(=O)N1CCc1ccccn1 (centres undefined) | 33 | < 10 | 32 (≈ 14 µg/mL) | – |
| O=C(NCc1ccc(OC(F)(F)F)cc1)C1c2ccccc2C(=O)N1C[C@@H]1CCCO1 (some centres undefined) | 50 | 28 | 28 (≈ 12.2 µg/mL) | – |
| O=C(NCc1ccc(OC(F)(F)F)cc1)C1c2ccccc2C(=O)N1CCOCC(F)(F)F (centres undefined) | 44 | < 10 | 3 (≈ 1.43 µg/mL) | – |
| CC(C)(C)OC(=O)N1CCC(N2C(=O)c3ccccc3C2C(=O)NCc2ccc(OC(F)(F)F)cc2)CC1 (centres undefined) | 170 | 89 | 7 (≈ 3.73 µg/mL) | – |
| O=C(NCc1ccc(OC(F)(F)F)cc1)C1c2cccc(O)c2C(=O)N1CCc1ncc(F)cn1 (centres undefined) | 42 | 36 | 2 (≈ 0.981 µg/mL) | – |
| CC(C)(C)OC(=O)N1CC(N2C(=O)c3ccccc3C2C(=O)NCc2ccc(OC(F)(F)F)cc2)C1 (centres undefined) | 43 | < 10 | 30 (≈ 15.2 µg/mL) | – |
| CC1(C(=O)NCc2ccc(OC(F)(F)F)cc2)c2ccccc2C(=O)N1CCc1ccccn1 (racemic) | > 500 | 57 | – | – |

The next lines start with results.

| microsomal CLint (in vitro [1]) [µL/min/mg] | microsomal CLint (in vitro [2]) [µL/min/mg] | solubility at 4 h (physchem) [µM] | Compound | also measured |
| --- | --- | --- | --- | --- |
| 150 | 10 | 17 (≈ 8.05 µg/mL) | O=C(NCc1ccc(OC(F)(F)F)cc1)C1c2c(F)cccc2C(=O)N1CCc1ccccn1 (centres undefined) | – |
| 190 | 39 | < 1 | O=C(NCc1ccc(OC(F)(F)F)cc1)C1c2ccccc2C(=O)N1CCOc1ccccn1 (centres undefined) | – |
| 190 | 59 | 1 (≈ 0.469 µg/mL) | Cc1cccc2c1C(C(=O)NCc1ccc(OC(F)(F)F)cc1)N(CCc1ccccn1)C2=O (centres undefined) | – |
| 57 | 30 | 2 (≈ 0.983 µg/mL) | O=C(NCc1ccc(OC(F)(F)F)cc1)C1c2ccccc2C(=O)N1CC(F)(F)c1ccccn1 (centres undefined) | – |
| 50 | < 10 | 6 (≈ 2.91 µg/mL) | COc1cccc2c1C(=O)N(CCc1ccccn1)C2C(=O)NCc1ccc(OC(F)(F)F)cc1 (centres undefined) | – |
| 82 | < 10 | 28 (≈ 13.1 µg/mL) | CC(Cc1ccccn1)N1C(=O)c2ccccc2C1C(=O)NCc1ccc(OC(F)(F)F)cc1 (centres undefined) | – |
| 340 | 67 | 13 (≈ 6.29 µg/mL) | CC(C)(Cc1ccccn1)N1C(=O)c2ccccc2C1C(=O)NCc1ccc(OC(F)(F)F)cc1 (centres undefined) | – |
| 180 | 58 | 7 (≈ 3.08 µg/mL) | O=C(NCc1ccc(C(F)(F)F)cc1)C1c2ccccc2C(=O)N1CCc1ccccn1 (centres undefined) | – |
| – | – | 42 (≈ 19.7 µg/mL) | O=C(NCc1ccc(OCC(F)(F)F)cc1)C1c2ccccc2C(=O)N1CCc1ccccn1 (centres undefined) | – |
| 33 | < 10 | 310 (≈ 141 µg/mL) | O=C(NCc1ccc(OC(F)(F)F)cc1)C1c2ccccc2C(=O)N1CCc1ncccn1 (centres undefined) | – |
| 26 | 23 | < 1 | O=C(NCc1ccc(OC(F)(F)F)cc1)C1c2c(O)cccc2C(=O)N1CCc1ccccn1 (centres undefined) | – |
| 97 | 37 | 4 (≈ 1.94 µg/mL) | COc1cccc2c1C(C(=O)NCc1ccc(OC(F)(F)F)cc1)N(CCc1ccccn1)C2=O (centres undefined) | – |
| 370 | 86 | 19 (≈ 8.65 µg/mL) | O=C(NCc1cccc(OC(F)(F)F)c1)C1c2ccccc2C(=O)N1CCc1ccccn1 (centres undefined) | – |
| > 500 | 31 | 6 (≈ 2.82 µg/mL) | O=C(NCc1ccc(OC(F)(F)F)cc1)C1c2ccccc2C(=O)N1CCCc1ccccn1 (centres undefined) | – |
| – | – | 360 (≈ 145 µg/mL) | COc1ccc(CNC(=O)C2c3ccccc3C(=O)N2CCc2ccccn2)cc1 (centres undefined) | – |
| 40 | < 10 | 6 (≈ 2.9 µg/mL) | CC(C)(CN1C(=O)c2ccccc2C1C(=O)NCc1ccc(OC(F)(F)F)cc1)c1ccccn1 (centres undefined) | – |
| 100 | 28 | 69 (≈ 31.4 µg/mL) | O=C(NCc1ccc(OC(F)(F)F)cc1)C1c2ccccc2C(=O)N1CCc1cccnc1 (centres undefined) | – |

— ChEMBL document CHEMBL2163233, “3-Oxoisoindoline-1-carboxamides: potent, state-dependent blockers of voltage-gated sodium channel Na(V)1.7 with efficacy in rat pain models” (J Med Chem, 2012)
